{
  "source": "paper PMC6691788",
  "about": "“Design and synthesis of phthalazine-based compounds as potent anticancer agents with potential antiangiogenic activity via VEGFR-2 inhibition” (Journal of Enzyme Inhibition and Medicinal Chemistry, 2019)",
  "assay_in_all_cases": "NCI 60 cell panel SRB screen",
  "key": {"RXF 393": {"system": "RXF 393", "type": "cell-based", "conditions": "Homo sapiens; RXF 393, single dose 10 μM; read-out: percent cell growth promotion"}, "PC-3": {"system": "PC-3", "type": "cell-based", "conditions": "Homo sapiens; PC-3, single dose 10 μM; read-out: percent cell growth promotion"}, "KM12": {"system": "KM12", "type": "cell-based", "conditions": "Homo sapiens; KM12, single dose 10 μM; read-out: percent cell growth promotion"}, "OVCAR-3": {"system": "OVCAR-3", "type": "cell-based", "conditions": "Homo sapiens; OVCAR-3, single dose 10 μM; read-out: percent cell growth promotion"}, "UO-31": {"system": "UO-31", "type": "cell-based", "conditions": "Homo sapiens; UO-31, single dose 10 μM; read-out: percent cell growth promotion"}, "UACC-257": {"system": "UACC-257", "type": "cell-based", "conditions": "Homo sapiens, UACC-257, read-out: percent cell growth promotion"}, "HCC-2998": {"system": "HCC-2998", "type": "cell-based", "conditions": "Homo sapiens; HCC-2998, single dose 10 μM; read-out: percent cell growth promotion"}, "HOP-92": {"system": "HOP-92", "type": "cell-based", "conditions": "Homo sapiens; HOP-92, single dose 10 μM; read-out: percent cell growth promotion"}, "NCI-H460": {"system": "NCI-H460", "type": "cell-based", "conditions": "Homo sapiens; NCI-H460, single dose 10 μM; read-out: percent cell growth promotion"}, "HL-60(TB)": {"system": "HL-60(TB)", "type": "cell-based", "conditions": "Homo sapiens, single dose 10 μM, read-out: percent cell growth promotion"}, "SF-268": {"system": "SF-268", "type": "cell-based", "conditions": "Homo sapiens; SF-268, single dose 10 μM; read-out: percent cell growth promotion"}, "TK-10": {"system": "TK-10", "type": "cell-based, human", "conditions": "Homo sapiens; TK-10, single dose 10 μM; read-out: percent cell growth promotion"}, "OVCAR-8": {"system": "OVCAR-8", "type": "cell-based", "conditions": "Homo sapiens; OVCAR-8, single dose 10 μM; read-out: percent cell growth promotion"}, "SK-OV-3": {"system": "SK-OV-3", "type": "cell-based", "conditions": "Homo sapiens; SK-OV-3, single dose 10 μM; read-out: percent cell growth promotion"}, "MOLT-4": {"system": "MOLT-4", "type": "cell-based", "conditions": "Homo sapiens; MOLT-4, single dose 10 μM; read-out: percent cell growth promotion"}, "A549/ATCC": {"system": "A549/ATCC", "type": "cell-based", "conditions": "Homo sapiens, single dose 10 μM, read-out: percent cell growth promotion"}, "HT29": {"system": "HT29", "type": "cell-based", "conditions": "Homo sapiens, HT-29; HT29, single dose 10 μM; read-out: percent cell growth promotion"}, "MDA-MB-468": {"system": "MDA-MB-468", "type": "cell-based", "conditions": "Homo sapiens, MDA-MB-468; MDA-MBA-468, single dose 10 μM; read-out: percent cell growth promotion", "protocol": "The human tumor cell lines of the cancer-screening panel were grown in RPMI 1640 medium containing 5% fetal bovine serum and […] L-glutamine. For a typical screening experiment, cells are inoculated into 96 well microtiter plates in 100 ml at plating densities ranging from 5000 to 40,000 cells/well depending on the doubling time of individual cell lines. After cell inoculation, the microtiter plates are incubated at 37 °C, 5% CO2, 95% air and 100%\nrelative humidity for 24 h prior to addition of experimental drugs. After 24 h, two plates of each cell line are fixed in situ with TCA, to represent a measurement of the cell population for each cell line at the time of drug addition (Tz). Experimental drugs are dissolved in dimethyl sulfoxide at 400-fold the desired final maximum test concentration and stored frozen prior to use. At the time of drug addition, an aliquot of frozen concentrate is thawed and diluted to twice the desired final maximum test concentration with complete medium containing […] Gentamicin. Additional four, 10-fold or ½log serial dilutions are made to provide a total of five drug concentrations plus control. Aliquots of […] of these different drug dilutions are added to the appropriate microtiter wells already containing 100 ml of medium, resulting in the required final drug concentrations. Following drug addition, the plates are incubated for an additional 48 h at 37 °C, 5% CO2, 95% air, and 100% relative humidity. For adherent cells, the assay is terminated by the addition of cold TCA. Cells are fixed in situ by the gentle addition of […] of cold 50% (w/v) TCA (final concentration,10% TCA) and incubated for 60 min at 4 °C. The supernatant is discarded, and the plates are washed five times with tap water and air dried. Sulforhodamine B (SRB) solution (100 ml) at 0.4% (w/v) in 1% acetic acid is added to each well, and plates are incubated for 10 min at room temperature. After staining, unbound dye is removed by washing five times with 1% acetic acid and the plates are air dried. Bound stain is subsequently dissolved with 10 μM trizma base, and the absorbance is read on an automated plate reader at a wavelength of 515 nm. For suspension cells, the methodology is the same except that the assay is terminated by fixing settled cells at the bottom of the wells by gently adding […] of 80% TCA (final concentration, 16% TCA).\nUsing the seven absorbance measurements [time zero, (Tz), control growth, (C), and test growth in the presence of drug at the five concentration levels (Ti)], the percentage growth is calculated at each of the drug concentrations levels. Percentage growth inhibition is calculated as: [(Ti -Tz)/(C - Tz)] x 100 for concentrations for which Ti>/ ¼ Tz and [(Ti -Tz) / Tz] x100 for concentrations for which Ti <Tz.\nThree dose response parameters are calculated for each experimental agent. Growth inhibition of 50% (GI50) is calculated from [(Ti -Tz)/(C - Tz)] x 100 =50, which is the drug concentration resulting in a 50% reduction in the net protein increase (as measured by SRB staining) in control cells during the drug incubation. The drug concentration resulting in total growth inhibition (TGI) is calculated from Ti ¼ Tz. The LC50 (concentration of drug resulting in a 50% reduction in the measured protein at the end of the drug treatment as compared to that at the beginning) indicating a net loss of cells following treatment is calculated from [(Ti - Tz) / Tz] x100 = -50. Values are calculated for each of these three parameters if the level of activity is reached; however, if the effect is not reached or is exceeded, the value for that parameter is expressed as greater or less than the maximum or minimum concentration tested."}, "NCI/ADR-RES": {"system": "NCI/ADR-RES", "type": "cell-based", "conditions": "Homo sapiens, single dose 10 μM, read-out: percent cell growth promotion"}},
  "data": [
    {"smiles": "Cc1nnc(Oc2ccc(NC(=O)Nc3ccc(Cl)cc3)cc2)c2ccccc12", "note": "[Compound 7e, 1–(4-Chlorophenyl)-3–(4-(4-methylphthalazin-1-yloxy)phenyl)urea]", "values": [
      {"measurement": "activity at 10 µM", "setting": "RXF 393", "result": 82, "unit": "%"},
      {"measurement": "activity at 10 µM", "setting": "PC-3", "result": 39, "unit": "%"},
      {"measurement": "activity at 10 µM", "setting": "KM12", "result": 57.7, "unit": "%"},
      {"measurement": "activity at 10 µM", "setting": "OVCAR-3", "result": 69.8, "unit": "%"},
      {"measurement": "activity at 10 µM", "setting": "UO-31", "result": 51.4, "unit": "%"},
      {"measurement": "activity at 10 µM", "setting": "UACC-257", "result": 83.9, "unit": "%"},
      {"measurement": "activity at 10 µM", "setting": "HCC-2998", "result": 110, "unit": "%"},
      {"measurement": "activity at 10 µM", "setting": "HOP-92", "result": 93.5, "unit": "%"},
      {"measurement": "activity at 10 µM", "setting": "NCI-H460", "result": 78.2, "unit": "%"},
      {"measurement": "activity at 10 µM", "setting": "HL-60(TB)", "result": 80.1, "unit": "%"},
      {"measurement": "activity at 10 µM", "setting": "SF-268", "result": 70.5, "unit": "%"},
      {"measurement": "activity at 10 µM", "setting": "TK-10", "result": 84.8, "unit": "%"},
      {"measurement": "activity at 10 µM", "setting": "OVCAR-8", "result": 76, "unit": "%"},
      {"measurement": "activity at 10 µM", "setting": "SK-OV-3", "result": 69.5, "unit": "%"},
      {"measurement": "activity at 10 µM", "setting": "MOLT-4", "result": 36.1, "unit": "%"},
      {"measurement": "activity at 10 µM", "setting": "A549/ATCC", "result": 61.5, "unit": "%"},
      {"measurement": "activity at 10 µM", "setting": "HT29", "result": 77, "unit": "%"},
      {"measurement": "activity at 10 µM", "setting": "MDA-MB-468", "result": 68.6, "unit": "%"},
      {"measurement": "activity at 10 µM", "setting": "NCI/ADR-RES", "result": 72.8, "unit": "%"}
    ]}
  ]
}
